{"source": "paper PMC5947712", "about": "“High‐Throughput Kinetic Analysis for Target‐Directed Covalent Ligand Discovery” (Angewandte Chemie (International Ed. in English), 2018)", "key": {"[1]": {"biological_target": "T1, Cdk2(WT) (Homo sapiens, UniProt P24941)", "test": "TdCD melting temperature of acrylamide-modified Cdk2", "type": "binding", "parameters": "made in house; host or cells: E. coli Tuner(DE3)", "conditions": "compound-modified Cdk2(WT), n=3", "procedure": "(§1) GSTBCdk2\" and\" GSTBcyclin\" A2:! Harvested! cells! were! resuspended! in! 50! mM! HEPES! buffer! (pH7.5)! containing! 150! mM! NaCl,!\n(§2) 10!mM!MgCl2,!2!mM!dithiothreitol!(DTT),!0.5!mg!mLR1!lysozyme,!and!0.01%!Triton!XR100!at!4!˚C!and!incubated!for!30!minutes.!\n(§3) After! sonication! and! centrifugation! (40! min,! 16000! g),! the! supernatant! was! incubated! for! 1! h! with! glutathioneRSepharose!\n(§4) beads,! washed! with! lysis! buffer! and! the! desired! protein! eluted! with! 10! mM! GSH! (100! mM! Tris,! pH! 8).! After! incubation! the! deR\n(§5) sired! protein! was! cleaved! from! the! GST! tag! with! PreScission! protease! (100:1)! at! 4 °C! for! 4! hours,! the! cleaved! GST! tag! was!\n(§6) removed! with! glutathioneRSepharose! beads.! Cdk2! was! concentrated! and! then! loaded! onto! a! Superdex! 75! (16/60)! column,!\n(§7) eluting! with! 100! mM! phosphate! buffer! containing! 50! mM! DTT.! Purified! Cdk2! was! concentrated! to! 10! mg! mLR1!and! stored! at!–\n(§8) 80! ˚C.! Cyclin! A2! was! purified! by! glutathioneRSepharose! affinity! as! described! above! with! the! following! amendments:! 100! mM!\n(§9) MgCl2!was! added! after! GST! cleavage! to! minimise! protein! aggregation! and! gel! filtration! was! performed! with! 50! mM! HEPES!\nbuffer! (pH! 7.5)! containing! 150! mM! NaCl,! 100! mM! MgCl2,! 2! mM! DTT.! ! […]\nlabelling! reached! completion! (as! monitored! by! fluorescence! quench! assay! and/or! intact! protein! mass! spectrometry).! […]"}, "[2]": {"test": "qIT (quantitative irreversible tethering) thiol consumption assay with glutathione", "conditions": "compound 0.5 mM, glutathione 5 μM, TCEP-agarose 2 % w/v", "quoted_text": "To measure the kinetics of electrophile‐thiol conjugation we developed quantitative irreversible tethering (qIT), a technique which employs fluorogenic thiol quantification (FTQ) in a high‐throughput thiol consumption assay (Figure 1 a). […] We solved this problem using an immobilized reducing agent (TCEP‐agarose, 2 % w/v), allowing facile separation by centrifugation before conducting the FTQ step (Figure 1 b).\nThe target thiol (5 μM) is reacted with electrophilic fragments (0.5 mM) under pseudo‐first‐order conditions in the presence of TCEP‐agarose (2 % w/v). Reaction progress is followed by discrete measurements of residual target thiol concentration using the fluorogenic probe CPM and rate constants are derived from exponential regression analysis. b) TCEP‐agarose prevents aerobic thiol oxidation. Glutathione solutions were stored ±TCEP‐agarose (2 % w/v).\nElectrophiles were individually reacted with glutathione under pseudo‐first‐order conditions in the presence of TCEP‐agarose. […] Fluorescence measurements were normalized against a DMSO control and exponential regressions used to determine rate constants.\nReactionBplate\" setup:!Each! well! of! a! 96Rwell! PCR! plate! was! charged! with! 60–100! µL! of! target! thiol! (GSH! or! protein,! 10! µM)!\nand! 4%! w/v! TCEPRagarose! beads! in! 100! mM! phosphate! buffer! (pH! 7.5! or! 8)! and! cooled! to! 4! ˚C.! Reactions! were! started! by!\naddition! of! an! equal! volume! of! preRcooled! electrophile! solution! (1! mM,! 2%! DMSO)! in! 0.1! M! phosphate! buffer! (final! concentraR\ntion:! thiol! =! 5! µM,! electrophile! =! 0.5! mM,! 2%! w/v! TCEPRagarose! beads),! with! a! minimum! of! 4! wells! per! plate! used! as!\nDMSO/thiol! only! controls.! After! mixing,! TCEPRagarose! was! pelleted! by! centrifugation! (1,300! rpm,! 1! min)! and! the! plate! incuR\nbated!at!4!˚C.,CPM\"Quench:! At! a! series! of! time! points!"}, "[3]": {"biological_target": "T1, Cdk2(WT)", "test": "In vitro kinase assay (NADH-coupled) of ligand-conjugated pCdk2 with Cyclin A2", "type": "biochemical", "parameters": "GST (N, cleaved yes); made in house; host or cells: E. coli Tuner(DE3)", "conditions": "for Kinase activity ± s.e.m relative to Cdk2(WT): n=3", "procedure": "Hs!Cyclin!A2!F!5’![…]!\nHs!Cyclin!A2!R!5’![…]!\nSc!CAK1!R!5’!GAATTCttatgggcttttctaattcttgcaag!\nas §1, §2, §3, §4, §5, §6, §7, §8, §9\nbuffer! (pH! 7.5)! containing! 150! mM! NaCl,! 100! mM! MgCl2,! 2! mM! DTT.! ! GSTRCAK1! was! also! purified! using! the! glutathioneR\nSepharose!affinity!workflow,!however!no!protease!or!gel!filtration!steps!were!performed!and!the!enzyme!was!used!crude.!\nHis6BCdk2:! Cell! lysis! was! performed! as! above! with! the! addition! of! 30! mM! imidiazole! to! the! lysis! buffer.! Following! sonication!\nthe! supernatant! was! incubated! for! 1! hour! with!nickel! sulfate! charged! NTA! agarose! beads,! washed! with! lysis!buffer! suppleR\nmented!with!50!mM!imidiazole!and!then!His6RCdk2!eluted!with!lysis!buffer!containing!500!mM!imidiazole.!After!dialysis!against!\n100! mM! phosphate! buffer! (pH! 8)! containing! 1! mM! DTT,! His6RCdk2! was! concentrated! and! loaded! onto! a! Superdex! 75! (16/60)!\ncolumn,!eluting!with!100!mM!phosphate!buffer!(pH!8)!without!reducing!agent.\"\nI., Acrylamide, labelling, of, Cdk2, for, crystallography, TdCD, kinase, assays, and, intact%\nprotein,mass,spectrometry,\nCdk2! (10! µM)! was! reacted! with! acrylamide! ligands! at! 500! µM! in! 100! mM! phosphate! buffer! (pH! 8)! containing! 1%! DMSO,! until!\nlabelling! reached! completion! (as! monitored! by! fluorescence! quench! assay! and/or! intact! protein! mass! spectrometry).! Excess!\nligand! was! subsequently! removed! by! serial! dilution! and! concentration! (×5)! into! the!appropriate! buffer! using! Amicon! UltraR0.5!\ncentrifugal!filter!devices!(MW!cutRoff!=!10!kDa).!\nJ.,Intact%protein,mass,spectrometry, […]"}, "[4]": {"biological_target": "T1, Cdk2(WT)", "test": "qIT thiol consumption assay with Cdk2(WT) (Cys177)", "type": "binding", "parameters": "made in house; host or cells: E. coli Tuner(DE3)", "conditions": "for k Cdk2(WT) (pseudo-first-order rate constant): compound 0.5 mM, Cdk2(WT) 5 μM, TCEP-agarose 2 % w/v"}, "[5]": {"conditions": "Cdk2(WT) completely modified with compound"}}, "note": "Several values for one entry are separate records, joined by “and”; a condition that tells them apart may be missing. Identical values can stand only once.", "data": [{"compound": "C=CC(=O)N1CCN(C(=O)OC(C)(C)C)c2ccccc21", "note": "[Acrylamide 1]", "values": [{"measurement": "Tm ± s.e.m", "setting": "[1]", "result": "48.95 ± 0.25 ˚C"}, {"measurement": "k GSH (pseudo-first-order rate constant)", "setting": "[2]", "result": 0.041, "unit": "h⁻¹"}, {"measurement": "inhibition of kinase activity", "setting": "[3]; [5]", "result": "about 83%"}, {"measurement": "Kinase activity ± s.e.m relative to Cdk2(WT)", "setting": "[3]; [5]", "result": "16.8±3.1", "unit": "%"}, {"measurement": "k Cdk2(WT) (pseudo-first-order rate constant)", "setting": "[4]", "result": 0.204, "unit": "h⁻¹"}, {"measurement": "REF Cdk2(WT) (rate enhancement factor = k protein/k GSH)", "setting": "[4]", "result": 5.0}]}, {"compound": "C=CC(=O)N1CCN(C(=O)OC)c2ccccc21", "note": "[Acrylamide 2]", "values": [{"measurement": "Tm ± s.e.m", "setting": "[1]", "result": "50.56 ± 0.24 ˚C"}, {"measurement": "k GSH (pseudo-first-order rate constant)", "setting": "[2]", "result": 0.089, "unit": "h⁻¹"}, {"measurement": "Kinase activity ± s.e.m relative to Cdk2(WT)", "setting": "[3]; [5]", "result": "96.6±5.6", "unit": "%"}, {"measurement": "inhibition of kinase activity (in words)", "setting": "[3]; Cdk2(WT) modified with compound", "result": "no significant inhibition"}, {"measurement": "k Cdk2(WT) (pseudo-first-order rate constant)", "setting": "[4]", "result": 0.233, "unit": "h⁻¹"}, {"measurement": "REF Cdk2(WT) (rate enhancement factor = k protein/k GSH)", "setting": "[4]", "result": "2.6 and 2.63"}]}]}
